From patent publication US11712466B2, “Vaccine composition” (TOHOKU UNIVERSITY, priority 2017, dated 2023) come the findings set out here.

The test system of test [1] is recombinant human VASH2 protein. Nature of the test: Antibody titer in blood of immunized mice by ELISA against recombinant VASH2 protein. The class given is in vivo, mouse. Conditions: for production of an antibody specific to VASH2: Example 5: C57BL/6J mice. From the text: C57BL/6J male mice aged 8 weeks were purchased from Charles River Laboratories Japan, Inc. After the delivery, the mice were reared in an environment where the room temperature and the light and dark cycles were maintained, and were provided with feed and water ad libitum. As a candidate sequence leading to activation of helper T cells by MHC class II, two peptide sequences: MTGSAADTHR (SEQ ID NO: 4; hereinafter, a peptide composed of the amino acid sequence is referred to as “MTG peptide”) and RRRQASPPRR (SEQ ID NO: 5; hereinafter, a peptide composed of the amino acid sequence is referred to as “RRR peptide”), each of which is not common to VASH1 in the VASH2 sequence were selected (FIG. 1). With respect to these peptides, peptide vaccines using KLH as a carrier were constructed. Note that for the conjugation of each peptide with KLH, a glutaraldehyde method was used. When the amount of the peptide introduced into KLH was measured for each of the obtained peptide vaccines, the amount of MTG was 66 to 70 nmol/mg of the conjugate, and the amount of RRR was 62 to 76 nmol/mg of the conjugate. Subsequently, 5 μg of KLH (control) and 20 μg of each of the KLH-antigen complexes were prepared with physiological saline so that the total amount was 50 μL, respectively, whereby KLH-mixed solutions were obtained. To each of the KLH-mixed solutions (50 μL), an equal amount of complete Freund's adjuvant was added. The obtained mixture was subcutaneously administered to the mice, whereby initial immunization was carried out. After 2 weeks from the administration, booster immunization was carried out by subcutaneously administering a mixture of each of the KLH-mixed solutions (50 μL) and an equal amount of incomplete Freund's adjuvant to the mice. Further, after 2 weeks from the booster immunization (after a total of 4 weeks), an increase in the antibody titer in the blood of each of the immunized mice was verified by ELISA.
The measurement of the antibody titer by ELISA was carried out as follows. After 2 weeks from the booster immunization (after a total of 4 weeks), the blood was collected from the facial vein of each of the immunized mice, and the serum separated from the blood was subjected to ELISA. By using 50 mM carbonate buffer, peptide-conjugated BSA was prepared at 10 μg/mL, and further a recombinant VASH2 protein was prepared at 1 μg/mL, each of which was added at 50 μL/well, and the resultant was left to stand overnight at 4° C. After the solution in each well was removed, 5% skim milk was added at 150 μL/well. After the resultant was left to stand at room temperature for 2 hours, the solution was removed, and subsequently, a serum sample diluted by 20 to 62500 times with 5% skim milk was added at 50 μL/well, and the resultant was left to stand overnight at 4° C. Subsequently, washing was carried out with PBS (200 μL/well×6 times), and thereafter, a secondary antibody (HRP-conjugated anti-Mouse IgG) diluted by 1000 times with 5% skim milk was added at 50 μL/well. After the resultant was left to stand at room temperature for 3 hours, washing was carried out with PBS (200 μL/well×3 times). Thereafter, tetramethylbenzidine (TMB) was added at 50 μL/well, and the resultant was left to stand at room temperature under light shielding. After 30 minutes, the reaction was stopped by adding 0.5 N H2SO4 at 50 μL/well, and an absorbance (450 nm) was measured using a microplate reader.

The next test has as its system mSnail. Nature of the test: Gene expression in excised tumor tissue by real-time PCR, mSnail. The class given is in vivo, mouse. Conditions: tumor excised two weeks after implantation. The method, then: The mouse implanted with the tumor cells in Example 2 was sacrificed two weeks after implantation of the tumor cells, and a tumor was excised from the right axillary subcutaneous region. By using RNeasy Plus Kit (Qiagen, Inc.), extraction of the total RNA from the excised tumor and purification thereof were carried out. By using the obtained total RNA as a template, cDNA was synthesized by reverse transcription reaction. The cDNA was analyzed by performing real-time PCR using a mixed solution of the obtained cDNA and SYBR green (TAKARA BIO, Inc.).
For orientation: Real-time PCR tracks product formation cycle by cycle.

The subject of a further test is Lewis lung cancer cells. Put plainly: In vitro wound migration method with serum of immunized mouse (LLC). In kind it is cell-based. Conditions: 1% serum of mouse with increased anti-VASH2 titer after vaccine; 24 and 48 hours. The protocol: By using the serum derived from a mouse in which an increase in the antibody titer against the recombinant human VASH2 protein by administration of the MTG peptide vaccine was confirmed, the effect on the migration ability of various types of cancer cells was examined by an in vitro wound migration method. Mouse-derived Lewis lung cancer cells and human-derived RH30 rhabdomyosarcoma cells were added to a 6-well plate at 1.0×10^6 cells each. After 24 hours, a formed cell monolayer was wounded and linearly exfoliated. After the exfoliation, the medium was replaced with fresh 0.5% FBS+RPMI medium supplemented with 1% mouse serum. At 24 hours and 48 hours after the medium replacement, the image of the cell monolayer was captured using an IX71 inverted microscope (manufactured by Olympus Corporation), and a cell migration distance of each time zone was analyzed using ImageJ software. The analysis was carried out according to the following formula. Cell migration distance (%)={(A−B)/A}×100
A: Width of initial wound, B: Width of wound after 24 hours or 48 hours

Test [2] has as its system pancreatic cancer cell line (K5). Put plainly: Metastasis inhibitory effect in vivo, K5 injected through tail vein, lung metastatic lesion. Also on record: species or system mouse. Particulars: 100 μg, Alhydrogel, C57BL/6J mice, day 21 after K5 injection; KLH control 2 out of 5 mice with metastasis. The protocol: 20 μg or 100 μg of KLH (control) and 20 μg or 100 μg of the MTG peptide vaccine were prepared with physiological saline so that the total amount was 100 μL, respectively, whereby KLH-mixed solutions were obtained. To each of the KLH-mixed solutions (100 μL), an equal amount of Alhydrogel (registered trademark) was added. The obtained mixture (200 μL) was intradermally (ID) administered to C57BL/6J male mice (n=5) aged 8 weeks, whereby initial immunization was carried out (0 day). Incidentally, in the intradermal administration, 200 μL was administered at a dose of 100 μL each to two sites. After 2 weeks from the administration (14 days), booster immunization was carried out by subcutaneously administering a mixture of each of the KLH-mixed solutions (100 μL) and an equal amount of Alhydrogel (registered trademark) to the mice. […] Further, at that time point, the blood was collected from each mouse, and the antibody titer of an antibody specific to the antigen peptide or the recombinant human VASH2 protein was measured by ELISA. The mice were sacrificed on day 21 after the injection of K5 (49 days), and the lung metastatic lesion was analyzed (FIG. 10). […]

Entries after “also recorded” stand apart in the source; their conditions may differ. Ends that are not written are not given here.

For the substance “MTG peptide vaccine: MTG peptide MTGSAADTHR (SEQ ID NO: 4) conjugated with KLH as carrier by a glutaraldehyde method (also: conjugated with KLH by glutaraldehyde)”, the “antibody titer against the recombinant human VASH2 protein” value in test [1] (Example 1: C57BL/6J mice, KLH-antigen complex s.c., Freund's adjuvant, serum 2 weeks after booster (total 4 weeks)) is “a significant increase in the antibody titer was confirmed; also recorded: a significant increase in the antibody titer was observed”. The “production of an antibody specific to VASH2” value is on record as “promoted the production of an antibody specific to VASH2” in test [1] (20 or 100 μg, Alhydrogel adjuvant, day 28) and “promoted the production of an antibody specific to VASH2” in test [1] (20 or 100 μg, Freund's adjuvant, day 28). The “production of an antibody specific to the VASH2 recombinant protein” value in test [1] (Example 6: C57BL/6J mice, 20 or 100 μg, Alhydrogel, day 28) is reported as “promotes the production of an antibody”. Also, in test [1] (Example 8: C57BL/6Jx129SVJ mice, 100 μg, Alhydrogel, day 28), the “induced antibody binding to the VASH2 recombinant protein” value is “induced an antibody that binds to both”. In addition, the “expression of mSnail (epithelial-mesenchymal transition marker) in tumor tissue” value with mSnail is given as “dose-dependent expression inhibitory effect; also recorded: significantly inhibited depending on the dose”. The “cell migration, mouse-derived Lewis lung cancer cells” value with Lewis lung cancer cells was “migration inhibitory effect”. In test [2], the “lung metastasis of the pancreatic cancer cells K5” value is recorded as “not confirmed in all four individuals”.
